The values that follow come from patent publication US20070299139A1, “Lyophilisate Comprising N-Diaminomethylene-2-Methyl-4,5-Di(Methylsulfonyl)Benzamide” (priority 2004, published 2007).

The data set can be described thus: Stability of the active compound in aqueous solution. In kind it is physicochemical. The settings on record: hydrolyses. The source says: The development of this active compound in intensive medicine requires that it is available in parenterally administrable form, best as aqueous solution.

`Cc1cc(S(C)(=O)=O)c(S(C)(=O)=O)cc1C(=O)NC(=N)N` [N-diaminomethylene-2-methyl-4,5-di(methylsulfonyl)benzamide]: the “stability in aqueous solution” value is given as “not stable in aqueous solution”.
